The source of these data is patent publication US20160193219A1, “SUBSTITUTED 2,3-DIHYDROIMIDAZO[1,2-C]QUINAZOLINE SALTS” (priority 2011, published 2016).

The conditions of data set [1]: 16 h.
A short description of data set [2]: Stability as solid (stored at 90° C. for 1 week, HPLC). Format: physicochemical. Particulars: for therm. stab. solid: 1 w @ 90° C.; for sum of impurities: HPLC area.
A short description of a further data set: Crystallinity by XRPD. Type of data set: physicochemical.
For data set [3] the following is noted: for pH: Saturated solution in water; for XRPD (solid residue): solid retained on filter after 20 h in water at 25° C.
Data set [4] is described as follows: Additional solubility data in different solvents (20 h at 25° C.). Type of data set: physicochemical. Here is the method:
The dihydrochloride of formula (II) was stirred in 20 mL of different solvents for 20 h at 25° C. In all hydrous solvents approx. 2 g of the dihydrochloride of formula (II) have been solved completely.

In another data set the test system is BT474. The experiment in a line: Proliferation assay (Cell Titer-Glo, 72 h), BT474. Particulars: BT474, Breast, dihydrochloride.
The subject of another data set is A549. The experiment in a line: Proliferation assay (Cell Titer-Glo, 72 h), A549. Particulars: A549, Lung, dihydrochloride. (In ATP-based viability assays light output follows the ATP content of the culture.)
The test system of another data set is HCT116. In words: Proliferation assay (Cell Titer-Glo, 72 h), HCT116. Particulars: HCT116, Colon, dihydrochloride.
Data set [5] relates to 16 tumor cell lines covering 6 cancer indications. The experiment in a line: Proliferation assays, panel of 16 tumor cell lines. Type of data set: cell-based. Particulars: all the tumor cell lines tested (panel of 16). Here is the method:
Cell proliferation is determined using the Cell Titer-Glo luminescent cell viability kit from Promega (Cat. #G7573) after 72 hours exposure to the drugs. Briefly, cells were plated at 500-1000 cells/well of 384-well plates in 25 μL growth medium. For each cell line assayed, cells were plated into a separate plate for determination of luminescence at the t=0 hours and t=72 hour time points. […] Dose plates for t=72 hour time points were treated with compounds diluted into growth medium in a final volume of 30 μL. Cells were then incubated for 72 hours at 37° C. Luminescence values for the t=72 hour samples were determined by adding 30 μL of Promega CellTiter-Glo solution, placing the cells on a shaker for 10 minutes at room temperature, and then reading the luminescence using a Victor luminometer. For data processing, t=0 values are subtracted from those determined for the t=72 hour time points, for both the treated and untreated samples. Percent differences in luminescence between drug treated and controls are used to determine percent inhibition of growth.

The next data set is described as follows: physchem. Particulars: 25 °C, water, thermodynamic from solid.
The next data set concerns SK-Br-3. The experiment in a line: Proliferation assay (Cell Titer-Glo, 72 h), SK-Br-3. Particulars: SK-Br-3, Breast, dihydrochloride.
The subject of a further data set is LNCaP. The experiment in a line: Proliferation assay (Cell Titer-Glo, 72 h), LNCaP. Particulars: Prostate, dihydrochloride.
The next data set relates to HT29. The experiment in a line: Proliferation assay (Cell Titer-Glo, 72 h), HT29. Particulars: HT29, Colon, dihydrochloride.
A further data set relates to H460. In words: Proliferation assay (Cell Titer-Glo, 72 h), H460. Particulars: H460, Lung, dihydrochloride.
The next data set has as its system MCF7. The experiment in a line: Proliferation assay (Cell Titer-Glo, 72 h), MCF7. Particulars: MCF7, Breast, dihydrochloride.
Another data set deals with BT20. The experiment in a line: Proliferation assay (Cell Titer-Glo, 72 h), BT20. Particulars: BT20, Breast, dihydrochloride.
Another data set relates to PC3. In words: Proliferation assay (Cell Titer-Glo, 72 h), PC3. Particulars: PC3, Prostate, dihydrochloride.
The next data set deals with Colo205. In words: Proliferation assay (Cell Titer-Glo, 72 h), Colo205. Particulars: Colo205, Colon, dihydrochloride.
Another data set deals with MDA-MB-468. In words: Proliferation assay (Cell Titer-Glo, 72 h), MDA-MB-468. Particulars: MDA-MB-468, Breast, dihydrochloride.
For another data set, the system named is T47D. The experiment in a line: Proliferation assay (Cell Titer-Glo, 72 h), T47D. Particulars: Breast, dihydrochloride.
The subject of the next data set is 786O. The experiment in a line: Proliferation assay (Cell Titer-Glo, 72 h), 786O. Particulars: Kidney, dihydrochloride.
[6] abbreviates: solid stored at 90° C. for 1 week.
[7] abbreviates: listed as Hydrochloric acid (Ex. 1), dihydrochloride.

Counter-ions that a name gives are not always drawn. Like-named read-outs stand apart in the source and are kept apart here.

In data set [1], `COc1c(OCCCN2CCOCC2)ccc2c1N=C(NC(=O)c1cnc(N)nc1)N1CCN=C21.O=C(O)/C=C\C(=O)O.O=C(O)/C=C\C(=O)O` [Comparative Example 5] returned an aqu. solubility of more than 8.1 mg/100 ml. Further, in data set [2], the therm. stab. solid entry is recorded as “+”. For the same compound, in data set [2] (setting [6]), the “HPLC, area % DS” value is reported as ~96.9% (sum of; the “HPLC, wt % DS” value was 59.4 wt %; the sum of impurities result is “impurities ~3.1%)”. Further, the crystallinity result in “Crystallinity by XRPD” is “+”. Further, in [3], the pH was found to be 3.1 and the “XRPD (solid residue)” value is reported as “crystalline”.

Turning to `COc1c(OCCCN2CCOCC2)ccc2c1N=C(NC(=O)c1cnc(N)nc1)N1CCN=C21.CS(=O)(=O)O.CS(=O)(=O)O` [Comparative Example 6], the aqu. solubility in data set [1] is more than 8.3 mg/100 ml. Moreover, the therm. stab. solid entry in data set [2] is “+”. In [2] (setting [6]), the “HPLC, area % DS” value is ~96.7% (sum of; the “HPLC, wt % DS” value worked out at 59.5 wt %; the sum of impurities result is given as “impurities ~3.3%)”. Besides, the pH in [3] was approximately 2.3.

The IC50 is the concentration that inhibits the measured activity by half. A lower IC50 goes with greater potency in that assay. By solubility (thermodynamic) is commonly meant the concentration in solution at equilibrium with solid. On to `COc1c(OCCCN2CCOCC2)ccc2c1N=C(NC(=O)c1cnc(N)nc1)N1CCN=C21` [dihydrochloride salt of formula (II), 2-amino-N-[7-methoxy-8-(3-morpholin-4-ylpropoxy)-2,3-dihydroimidazo[1,2-c]quinazolin-5-yl]pyrimidine-5-carboxamide dihydrochloride], for which the Solubility result in data set [4] (0.1M HCl, 20 h at 25° C.) is given as “≧8800 mg/100 ml soluble”; in data set [4] (Acetone, 20 h at 25° C.), 0.3 mg/100 ml practically insoluble; in data set [4] (Acetonitrile, 20 h at 25° C.), 1.1 mg/100 ml practically insoluble; in [4] (Buffer pH 4.5, 20 h at 25° C.) it was “≧8900 mg/100 ml soluble”; in data set [4] (Buffer pH 7.0, 20 h at 25° C.) it was “≧8700 mg/100 ml soluble”; in [4] (Ethanol, 20 h at 25° C.), 24.8 mg/100 ml very slightly soluble. Besides, the Solubility in [4] (PEG400, 20 h at 25° C.) is on record as 301 mg/100 ml slightly soluble; in data set [4] (Water, 20 h at 25° C.) it was “≧9400 mg/100 ml soluble”; in data set [3] (water, 25° C., 20 h, HPLC), more than 8.8 mg/100 ml. Besides, the IC50 in the data set on BT474 came to 10 nM; in the data set on A549, 44 nM; with HCT116, 72 nM; in the data set on SK-Br-3, 1 nM; in the data set on LNCaP, 67 nM; with HT29, 10 nM. In addition, the half-maximal inhibitory concentration (IC50) worked out at 67 nM in the data set on H460; 9 nM in the data set with MCF7; 2 nM in the data set with BT20; 90 nM in the data set with PC3; 110 nM in the data set with Colo205; 256 nM in the data set on MDA-MB-468. In addition, the IC50 worked out at 2 nM in the data set on T47D and 247 nM with 786O. In data set [5], the “difference in the IC50 values (free base vs dihydrochloride salt)” value is recorded as “less than 3 fold”. The same compound showed a thermodynamic solubility at 16 h in the data set “physchem” of more than 88 µg/mL. In data set [2] (setting [7]), the therm. stab. solid entry is recorded as “+”. Moreover, the “HPLC, area % DS” value in data set [2] (setting [6]) is reported as ~98.2%; sum of. The “HPLC, wt % DS” value in [2] (setting [6]) is reported as approximately 65.6 wt %. Also, in [2] (setting [6]), the “Stability as solid (Comments)” value was “Stable”. The sum of impurities entry in data set [2] (setting [6]) is on record as “impurities ~1.8%”. Moreover, in “Crystallinity by XRPD” (setting [7]), the crystallinity result is given as “++”. The same compound displayed a pH in [3] of approximately 2.4. Moreover, the “XRPD (solid residue)” value in data set [3] is listed as “crystalline”.
